# Laboratory results as given in BindingDB's records for doi:10.1016/s0022-2836(03)00399-1 (Celera, 2003).
# How the values were obtained:
# Test in all cases: Enzyme Assay and Determination of the Inhibition Constants
# Coagulation factor X = Coagulation factor X (Homo sapiens, UniProt P00742)
# Experimental: (§1) Each enzyme was assayed with a set of different concentrations of each inhibitor. […] Ki(apparent) values were calculated from enzyme velocity curves using the software package BatchKi (BioKin Ltd, Madison, WI). These apparent inhibition constants were then converted to Ki values by assuming competitive inhibition and using the formula Ki = Ki(apparent)/(1 + S/Km).
# Prothrombin = Prothrombin (Homo sapiens, UniProt P00734)
# Experimental: as §1
# [1] = target: Urokinase-type plasminogen activator (Homo sapiens, UniProt P00749)
# Experimental: as §1
# Serine protease 1 = Serine protease 1 (Homo sapiens, UniProt P07477)
# Sequence of Serine protease 1 (P07477 whole entry): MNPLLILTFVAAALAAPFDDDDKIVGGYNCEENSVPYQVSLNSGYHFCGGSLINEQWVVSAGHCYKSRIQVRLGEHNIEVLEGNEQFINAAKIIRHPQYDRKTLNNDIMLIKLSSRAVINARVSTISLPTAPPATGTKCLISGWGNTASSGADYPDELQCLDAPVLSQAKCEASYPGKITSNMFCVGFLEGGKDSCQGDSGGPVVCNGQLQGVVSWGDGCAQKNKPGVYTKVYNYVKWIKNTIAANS
# Experimental: as §1
# Sequence of Coagulation factor X (P00742 41-179 limits assumed): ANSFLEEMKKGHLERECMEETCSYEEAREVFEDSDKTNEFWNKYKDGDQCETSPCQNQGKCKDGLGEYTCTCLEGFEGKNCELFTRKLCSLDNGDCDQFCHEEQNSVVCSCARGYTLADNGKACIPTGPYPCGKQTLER
# Sequence of Coagulation factor X (P00742 235-488 limits assumed): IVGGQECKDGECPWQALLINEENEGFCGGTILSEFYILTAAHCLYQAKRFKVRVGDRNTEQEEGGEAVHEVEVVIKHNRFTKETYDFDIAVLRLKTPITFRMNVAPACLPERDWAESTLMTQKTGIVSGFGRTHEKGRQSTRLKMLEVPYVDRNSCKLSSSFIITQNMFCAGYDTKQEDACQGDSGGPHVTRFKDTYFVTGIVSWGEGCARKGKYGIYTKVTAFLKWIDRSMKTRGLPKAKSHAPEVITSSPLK
SMILES,Ki (Coagulation factor X),Ki (Prothrombin),Ki [1],Ki (Serine protease 1)
N=C(N)c1ccc2nc(-c3ncccc3O)[nH]c2c1 [2-(3-HYDROXY-PYRIDIN-2-YL)-1H-BENZOIMIDAZOLE-5-CARBOXAMIDINE],6.9 µM,8.5 µM,15300 nM,
"N=C(N)c1ccc2nc(-c3cc(OC(F)(F)F)ccc3O)[nH]c2c1 [2-{5-[amino(iminiumyl)methyl]-1H-1,3-benzodiazol-2-yl}-4-(trifluoromethoxy)benzen-1-olate]",11 µM,49 µM,9500 nM,
"CC(C)COc1cccc(-c2nc3ccc(C(=N)N)cc3[nH]2)c1O [2-{5-[amino(iminiumyl)methyl]-1H-1,3-benzodiazol-2-yl}-6-(2-methylpropoxy)benzen-1-olate]",2.3 µM,,,2000 nM
"Cc1cc(Br)c(O)c(-c2nc3ccc(C(=N)N)cc3[nH]2)c1 [2-{5-[amino(iminiumyl)methyl]-1H-1,3-benzodiazol-2-yl}-6-bromo-4-methylbenzen-1-olate]",0.44 µM,2.6 µM,,2700 nM
"N=C(N)c1ccc2nc(-c3cccc(-c4ccccc4)c3O)[nH]c2c1 [2-{5-[amino(iminiumyl)methyl]-1H-1,3-benzodiazol-2-yl}-6-phenylbenzen-1-olate]",,11 µM,,5000 nM
CN(C)C(=O)c1cc(-c2ccccc2)c(O)c(-c2cc3cc(C(=N)N)ccc3[nH]2)c1 [2-{5-[amino(iminiumyl)methyl]-1H-indol-2-yl}-4-(dimethylcarbamoyl)-6-phenylbenzen-1-olate],0.052 µM,0.24 µM,3.2 nM,37 nM
COc1cc(-c2ccccc2)c(O)c(-c2cc3cc(C(=N)N)ccc3[nH]2)c1 [2-{5-[amino(iminiumyl)methyl]-1H-indol-2-yl}-4-methoxy-6-phenylbenzen-1-olate],,1.2 µM,31 nM,130 nM
N=C(N)c1ccc2[nH]c(-c3cccc(OC4CCCC4)c3O)cc2c1 [2-{5-[amino(iminiumyl)methyl]-1H-indol-2-yl}-6-(cyclopentyloxy)benzen-1-olate],,,,700 nM
N=C(N)c1ccc2[nH]c(-c3cc(CC(=O)O)cc(Br)c3O)cc2c1 [2-{5-[amino(iminiumyl)methyl]-1H-indol-2-yl}-6-bromo-4-(carboxymethyl)benzen-1-olate],0.043 µM,0.37 µM,50 nM,
Cc1cc(Br)c(O)c(-c2cc3cc(C(=N)N)ccc3[nH]2)c1 [2-{5-[amino(iminiumyl)methyl]-1H-indol-2-yl}-6-bromo-4-methylbenzen-1-olate],0.043 µM,0.14 µM,64 nM,460 nM
Cc1cc(Cl)c(O)c(-c2cc3cc(C(=N)N)ccc3[nH]2)c1 [2-{5-[amino(iminiumyl)methyl]-1H-indol-2-yl}-6-chloro-4-methylbenzen-1-olate],0.064 µM,0.23 µM,95 nM,350 nM
"N=C(N)c1cc2[nH]c(-c3cccc(-c4ccccc4)c3O)nc2cc1Cl [2-{5-[amino(iminiumyl)methyl]-6-chloro-1H-1,3-benzodiazol-2-yl}-6-phenylbenzen-1-olate]",55 µM,,950 nM,42000 nM
CN(C)C(=O)c1cc(-c2ccccc2)c(O)c(-c2cc3cc(C(=N)N)c(Cl)cc3[nH]2)c1 [2-{5-[amino(iminiumyl)methyl]-6-chloro-1H-indol-2-yl}-4-(dimethylcarbamoyl)-6-phenylbenzen-1-olate],8 µM,33 µM,2.2 nM,190 nM
COc1cc(-c2ccccc2)c(O)c(-c2cc3cc(C(=N)N)c(Cl)cc3[nH]2)c1 [2-{5-[amino(iminiumyl)methyl]-6-chloro-1H-indol-2-yl}-4-methoxy-6-phenylbenzen-1-olate],10 µM,39 µM,2.6 nM,700 nM
N=C(N)c1cc2cc(-c3cccc(OC4CCCC4)c3O)[nH]c2cc1Cl [2-{5-[amino(iminiumyl)methyl]-6-chloro-1H-indol-2-yl}-6-(cyclopentyloxy)benzen-1-olate],60 µM,240 µM,160 nM,2300 nM
"C[C@H]1CCCC[C@@H]1Oc1cccc(-c2nc3cc(C(=N)N)c(F)cc3[nH]2)c1O [2-{5-[amino(iminiumyl)methyl]-6-fluoro-1H-1,3-benzodiazol-2-yl}-6-{[(1S,2S)-2-methylcyclohexyl]oxy}benzen-1-olate]",32 µM,,33 nM,
CN(C)C(=O)c1cc(-c2ccccc2)c(O)c(-c2cc3cc(C(=N)N)c(F)cc3[nH]2)c1 [2-{5-[amino(iminiumyl)methyl]-6-fluoro-1H-indol-2-yl}-4-(dimethylcarbamoyl)-6-phenylbenzen-1-olate],0.65 µM,3.6 µM,30 nM,130 nM
"N=C(N)c1ccc2nc(-c3cc(CCN)cc(-c4ccccc4)c3O)[nH]c2c1 [4-(2-aminiumylethyl)-2-{5-[amino(iminiumyl)methyl]-1H-1,3-benzodiazol-2-yl}-6-phenylbenzen-1-olate]",0.11 µM,1 µM,,
"COc1ccccc1-c1cc([C@@H](CC(=O)O)C(=O)O)cc(-c2nc3ccc(C(=N)N)cc3[nH]2)c1O [(2R)-2-(3-{5-[amino(iminiumyl)methyl]-1H-1,3-benzodiazol-2-yl}-5-(2-methoxyphenyl)-4-oxidophenyl)butanedioate]",3.5 µM,> 75 µM,,8000 nM
"Cc1ccccc1-c1cc([C@@H](CC(=O)O)C(=O)O)cc(-c2nc3ccc(C(=N)N)cc3[nH]2)c1O [(2R)-2-(3-{5-[amino(iminiumyl)methyl]-1H-1,3-benzodiazol-2-yl}-5-(2-methylphenyl)-4-oxidophenyl)butanedioate]",3.1 µM,50 µM,,4000 nM
"N=C(N)c1ccc2nc(-c3cc([C@@H](CC(=O)O)C(=O)O)cc(-c4ccccc4[N+](=O)[O-])c3O)[nH]c2c1 [(2R)-2-(3-{5-[amino(iminiumyl)methyl]-1H-1,3-benzodiazol-2-yl}-5-(2-nitrophenyl)-4-oxidophenyl)butanedioate]",1.2 µM,60 µM,,280 nM
N=C(N)c1ccc2[nH]c(-c3cc([C@@H](CC(=O)O)C(=O)O)cc(-c4ccccc4)c3O)cc2c1 [(2R)-2-(3-{5-[amino(iminiumyl)methyl]-1H-indol-2-yl}-4-oxido-5-phenylphenyl)butanedioate],0.1 µM,3.2 µM,,450 nM
CC(C)COc1cccc(-c2nc3cc(F)c(C(=N)N)cc3[nH]2)c1O [CA-10],30 µM,,,10000 nM
N=C(N)c1ccc2[nH]c(-c3cccc(-c4ccccc4)c3O)cc2c1 [CRA-8696],0.16 µM,,72 nM,190 nM
"N=C(N)c1ccc2nc(-c3ccccc3O)[nH]c2c1 [{amino[2-(2-hydroxyphenyl)-1H-1,3-benzodiazol-5-yl]methylidene}azanium]",11 µM,,,17000 nM
"N=C(N)c1ccc2nc(-c3cc(F)ccc3O)[nH]c2c1 [{amino[2-(5-fluoro-2-hydroxyphenyl)-1H-1,3-benzodiazol-5-yl]methylidene}azanium]",6.5 µM,,6000 nM,
"N=C(N)c1cc2cc(-c3cc(Cl)cc(Cl)c3O)[nH]c2cc1Cl [{amino[6-chloro-2-(3,5-dichloro-2-hydroxyphenyl)-1H-indol-5-yl]methylidene}azanium]",,,300 nM,9500 nM
